Reference: ChEMBL document CHEMBL1201862, “PubChem BioAssay data set” (2004)
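Interpolation was linear, between the two tested concentrations surrounding the appropriate level; five concentrations were tested over 48 hours in 96-well plates. Abbreviation: GI50, concentration required for 50% inhibition of growth.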 Activity calls are given as the source filed them. Cut-off read from the data, not from the text of the source: active = GI50 up to about 1.1 µM and inactive = higher.

What was measured:
Test in all cases: NCI-60 cell line screen, 48 h
[1] = tested on: A498
[2] = tested on: COLO 205
[3] = tested on: HCT-15
[4] = tested on: HL-60
[5] = tested on: HT-29
[6] = tested on: Malme-3M
[7] = tested on: NCI-H23
[8] = tested on: NCI-H460
[9] = tested on: SF-295
[10] = tested on: SF-539
[11] = tested on: SK-MEL-28
[12] = tested on: SK-OV-3
[13] = tested on: SN12C
[14] = tested on: SW-620
[15] = tested on: U-251
[16] = tested on: UACC-257
[17] = tested on: CCRF-CEM
[18] = tested on: HOP-62
[19] = tested on: K562

| SMILES | GI50 [1] | GI50 [2] | GI50 [3] [µM] | GI50 [4] | GI50 [5] | GI50 [6] | GI50 [7] | GI50 [8] | GI50 [9] | GI50 [10] | GI50 [11] | GI50 [12] | GI50 [13] | GI50 [14] | GI50 [15] | GI50 [16] | GI50 [17] | GI50 [18] | GI50 [19] |
| --- | --- | --- | --- | --- | --- | --- | --- | --- | --- | --- | --- | --- | --- | --- | --- | --- | --- | --- | --- |
| Nc1nc2c(ncn2CCOC(c2ccccc2)P(=O)(O)O)c(=O)[nH]1 (stereo not drawn) | > 100 µM (inactive) | > 100 µM (inactive) | > 100 | > 100 µM (inactive) | > 100 µM (inactive) | > 100 µM (inactive) | > 100 µM (inactive) | > 100 µM (inactive) | > 100 µM (inactive) | > 100 µM (inactive) | > 100 µM (inactive) | > 100 µM (inactive) | > 100 µM (inactive) | > 100 µM (inactive) | 1.09 µM (active) | > 100 µM (inactive) |  |  |  |
| COC(=O)C(=O)C(/C(=N/N)C(=O)Nc1ccccc1C(N)=O)c1nc2ccc([N+](=O)[O-])cc2nc1O (stereo not drawn) | 1.01 µM (active) | > 100 µM (inactive) | > 100 | > 100 µM (inactive) | > 100 µM (inactive) | > 100 µM (inactive) | > 100 µM (inactive) | > 100 µM (inactive) | > 100 µM (inactive) | > 100 µM (inactive) | > 100 µM (inactive) |  | > 100 µM (inactive) | > 100 µM (inactive) | > 100 µM (inactive) | > 100 µM (inactive) | > 100 µM (inactive) | > 100 µM (inactive) | > 100 µM (inactive) |
| O=C1OCc2nc3c(c(-c4ccccc4C(F)(F)F)c21)C(=O)OC3 | > 100 µM (inactive) | > 100 µM (inactive) | > 100 | > 100 µM (inactive) |  | > 100 µM (inactive) | > 100 µM (inactive) | > 100 µM (inactive) | > 100 µM (inactive) | > 100 µM (inactive) | > 100 µM (inactive) | > 100 µM (inactive) | > 100 µM (inactive) | > 100 µM (inactive) | > 100 µM (inactive) | > 100 µM (inactive) | > 100 µM (inactive) | > 100 µM (inactive) | > 100 µM (inactive) |
| COc1ccccc1C1C(C(=O)Nc2ccccc2)=C(C)NC(C)=C1C(=O)Nc1ccccc1 | 31.7 µM (inactive) | 24.5 µM (inactive) | 54 |  | 83.4 µM (inactive) | > 100 µM (inactive) | > 100 µM (inactive) | 44 µM (inactive) | 76.4 µM (inactive) | 36.1 µM (inactive) | > 100 µM (inactive) | > 100 µM (inactive) | > 100 µM (inactive) | 93.8 µM (inactive) | 90.8 µM (inactive) | 75.9 µM (inactive) |  | 83.8 µM (inactive) | 44.8 µM (inactive) |
| C[C@@H]1CC[C@@H]2[C@@H](C1)O[C@@H]([C@@H](C)OCc1ccccc1)SC2(C)C | 17.3 µM (inactive) | 17.6 µM (inactive) | 19.5 |  | 18.8 µM (inactive) | 17.2 µM (inactive) | 21.7 µM (inactive) | 20.9 µM (inactive) | 16.6 µM (inactive) | 17.2 µM (inactive) | 24.7 µM (inactive) | 24.9 µM (inactive) | 17.2 µM (inactive) | 18.4 µM (inactive) | 17.5 µM (inactive) | 19.4 µM (inactive) | 16.6 µM (inactive) | 16.4 µM (inactive) | 18.1 µM (inactive) |
| S=c1[nH]c(=S)c2nnn(-c3ccccc3)c2[nH]1 |  | > 100 µM (inactive) | > 100 | > 100 µM (inactive) | > 100 µM (inactive) | > 100 µM (inactive) | > 100 µM (inactive) | > 100 µM (inactive) |  | > 100 µM (inactive) | > 100 µM (inactive) | > 100 µM (inactive) | > 100 µM (inactive) | > 100 µM (inactive) | > 100 µM (inactive) | > 100 µM (inactive) | > 100 µM (inactive) | > 100 µM (inactive) | > 100 µM (inactive) |
| NC(=O)NNC(=O)CCn1[nH]c(=O)c(Cl)c(Cl)c1=O | > 100 µM (inactive) | > 100 µM (inactive) | > 100 | > 100 µM (inactive) | > 100 µM (inactive) | > 100 µM (inactive) | > 100 µM (inactive) | > 100 µM (inactive) | > 100 µM (inactive) |  | > 100 µM (inactive) | > 100 µM (inactive) | > 100 µM (inactive) | > 100 µM (inactive) | > 100 µM (inactive) | > 100 µM (inactive) | > 100 µM (inactive) | > 100 µM (inactive) | > 100 µM (inactive) |
| CC(C)NC(=O)OCc1nnn2c1C(OC(=O)NC(C)C)CC2 (stereo not drawn) |  | > 100 µM (inactive) | > 100 |  | > 100 µM (inactive) | > 100 µM (inactive) | > 100 µM (inactive) | > 100 µM (inactive) | > 100 µM (inactive) | > 100 µM (inactive) | > 100 µM (inactive) | > 100 µM (inactive) | > 100 µM (inactive) | > 100 µM (inactive) | > 100 µM (inactive) | > 100 µM (inactive) |  |  | > 100 µM (inactive) |
| O=c1[nH]c2nc3ccccc3c(=O)n2nc1Cc1ccccc1 |  | > 100 µM (inactive) | > 100 |  | > 100 µM (inactive) | > 100 µM (inactive) | > 100 µM (inactive) | > 100 µM (inactive) | > 100 µM (inactive) | > 100 µM (inactive) | > 100 µM (inactive) | 84.7 µM (inactive) | > 100 µM (inactive) | > 100 µM (inactive) | > 100 µM (inactive) | > 100 µM (inactive) | > 100 µM (inactive) | 16.3 µM (inactive) | > 100 µM (inactive) |
| N#Cc1cccc(C2SCc3nc4ccccc4n32)c1 (stereo not drawn) | 95.9 µM (inactive) | > 100 µM (inactive) |  | 62.8 µM (inactive) | > 100 µM (inactive) | > 100 µM (inactive) | 74.8 µM (inactive) | > 100 µM (inactive) | > 100 µM (inactive) | > 100 µM (inactive) | > 100 µM (inactive) | > 100 µM (inactive) | 75.9 µM (inactive) | > 100 µM (inactive) | > 100 µM (inactive) | 80 µM (inactive) | > 100 µM (inactive) | > 100 µM (inactive) | 54.6 µM (inactive) |
| O=C1CCCC1CC(CN1CCOCC1)Sc1nnnn1-c1ccccc1 (stereo not drawn) | > 100 µM (inactive) | 16.6 µM (inactive) |  | 16.7 µM (inactive) | 31 µM (inactive) | > 100 µM (inactive) | > 100 µM (inactive) |  | > 100 µM (inactive) | > 100 µM (inactive) | > 100 µM (inactive) | > 100 µM (inactive) | > 100 µM (inactive) | > 100 µM (inactive) | > 100 µM (inactive) | > 100 µM (inactive) | > 100 µM (inactive) | > 100 µM (inactive) | > 100 µM (inactive) |
| COc1ccc(C2C(Cl)C(=O)N2n2cnc3ccccc3c2=O)cc1 (stereo not drawn) |  | 62.2 µM (inactive) | > 100 | 59.2 µM (inactive) | > 100 µM (inactive) | > 100 µM (inactive) | 94 µM (inactive) | 70.5 µM (inactive) | > 100 µM (inactive) |  | > 100 µM (inactive) | > 100 µM (inactive) | > 100 µM (inactive) | > 100 µM (inactive) | > 100 µM (inactive) | > 100 µM (inactive) | > 10 µM (inactive) | > 100 µM (inactive) | 89.7 µM (inactive) |
| CCOc1ccccc1NC(=O)CC1C(=O)Nc2ccccc2[S+]1[O-] (stereo not drawn) | > 100 µM (inactive) |  | > 100 | 26.8 µM (inactive) | > 100 µM (inactive) | > 100 µM (inactive) | > 100 µM (inactive) | 80 µM (inactive) | > 100 µM (inactive) | > 100 µM (inactive) | > 100 µM (inactive) |  | > 100 µM (inactive) | > 100 µM (inactive) | 67.9 µM (inactive) | > 100 µM (inactive) | 39.8 µM (inactive) |  | 49.7 µM (inactive) |
| C/C(=C\C(C)COCc1ccccc1)[C@H](COCc1ccccc1)OCc1ccccc1 (stereo partly drawn) | > 100 µM (inactive) | > 100 µM (inactive) | > 100 | > 10 µM (inactive) | > 100 µM (inactive) |  | 48 µM (inactive) | > 100 µM (inactive) | > 100 µM (inactive) | > 100 µM (inactive) | > 100 µM (inactive) | > 100 µM (inactive) | > 100 µM (inactive) | > 100 µM (inactive) | > 100 µM (inactive) |  | 68.1 µM (inactive) | > 100 µM (inactive) | 73.1 µM (inactive) |
| CCCCCCCCCCCC[N+]12CC[N+](C)(CC1)CC2 |  | 5.28 µM (inactive) |  | 16.4 µM (inactive) | 16.4 µM (inactive) | 46.9 µM (inactive) | 20.9 µM (inactive) | 6.38 µM (inactive) | 22.3 µM (inactive) | 39.4 µM (inactive) | > 100 µM (inactive) | > 100 µM (inactive) | 18.3 µM (inactive) | 44.3 µM (inactive) | 15.6 µM (inactive) | > 100 µM (inactive) | 18.8 µM (inactive) | 29.2 µM (inactive) | 23.8 µM (inactive) |
| O=C1CCc2ccc(O)c(c2)Oc2ccc(cc2)[C@@H]2O[C@@H]2CO1 | 29 µM (inactive) | 98.9 µM (inactive) |  | 37.9 µM (inactive) | 89.3 µM (inactive) | 22.2 µM (inactive) | 38.4 µM (inactive) |  | 56.1 µM (inactive) | 70.6 µM (inactive) | 49.2 µM (inactive) | 27 µM (inactive) | 62.4 µM (inactive) | 53.6 µM (inactive) | 67.8 µM (inactive) | 48.4 µM (inactive) | 76 µM (inactive) | > 100 µM (inactive) | 24.6 µM (inactive) |
